According to publication PMC5063996, “The Mechanism by Which Arabinoxylanases Can Recognize Highly Decorated Xylans” (The Journal of Biological Chemistry, 2016):

Biological target: T1, CtGH5-CBM6 (CtGH5-CtCBM6, derivative of arabinoxylanase CtXyl5A) (Acetivibrio thermocellus, UniProt A3DHG6, E279S)
T1 construct: gene Cthe_2193; no signal peptide, CBM13, Fn3, CBM62 or dockerin; C-terminal His6; E. coli BL21(DE3)
Assay: X-ray crystal structure, co-crystal, […] Å
Assay type: binding
Conditions: nucleophile-inactive mutant; 10 mM WAX-derived oligosaccharide; subsites -1 to -4 and -2*; PDB code printed as 2LA2 (apparent misprint for 5LA2)

T1 sequence (A3DHG6 entry or part of it E279S): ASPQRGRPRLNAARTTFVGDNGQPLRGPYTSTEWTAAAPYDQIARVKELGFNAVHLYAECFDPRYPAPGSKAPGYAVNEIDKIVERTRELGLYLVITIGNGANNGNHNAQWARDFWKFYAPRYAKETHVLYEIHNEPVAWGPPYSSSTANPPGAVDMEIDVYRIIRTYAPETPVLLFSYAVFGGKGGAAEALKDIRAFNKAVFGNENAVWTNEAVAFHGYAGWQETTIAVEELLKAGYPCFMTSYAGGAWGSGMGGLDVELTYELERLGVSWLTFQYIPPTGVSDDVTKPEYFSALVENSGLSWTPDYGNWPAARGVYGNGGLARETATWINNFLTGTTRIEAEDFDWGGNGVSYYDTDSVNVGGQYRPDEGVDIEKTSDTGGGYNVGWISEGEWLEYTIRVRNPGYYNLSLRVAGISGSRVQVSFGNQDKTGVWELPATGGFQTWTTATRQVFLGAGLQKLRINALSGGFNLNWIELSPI

## OC[C@@H]1O[C@@H](O[C@H]2[C@H](O[C@@H]3OC[C@@H](O[C@@H]4OC[C@@H](O[C@@H]5OC[C@@H](O)[C@H](O)[C@H]5O)[C@H](O)[C@H]4O)[C@H](O)[C@H]3O)COC(O)[C@@H]2O)[C@H](O)[C@H]1O (stereo partly drawn) [Xylp-β-1,4-Xylp-β-1,4-Xylp-[α-1,3-Araf]-β-1,4-Xylp]
  X-ray crystal structure, co-crystal, 1.65 Å: co-crystallizing the nucleophile inactive mutant CtGH5E279S-CtCBM6 with a WAX-derived oligosaccharide
